Results as given in US20240057617A1, “COMPOSITIONS AND METHODS FOR MEALYBUG MONITORING AND CONTROL” (The State of Israel, Ministry of Agriculture & Rural …, priority 2019, published 2024).

Assays:
N. viridis males [1] = experiment: Flight bioassay with baited sticky traps in rearing room; assay type: in vivo, Nipaecoccus viridis; details: for average males caught on sticky trap: 20 μg in polyethylene vial, 12 days, mean ±SE, N=12; for statistical comparison of male catches per day with control: Kruskal-Wallis P=0.001, Conover's test at α=0.05
Description: Insects. N. viridis populations were collected from two citrus groves in Israel, in West Negev and the Galilee areas. These populations were used to establish a colony on sprouted potatoes (Solanum tuberosum) in a rearing room at 25±1° C., 50-60% relative humidity, and under a photoperiod of 14L:10D. First stage larval instars were separated to a different cage and emerged adult males were removed manually each day (Levi-Zada et al. 2014). Adult females, 10 days after the last molt, were transferred to clean potato sprouts for further use in experiments.
Flight bioassays of males compared the attractiveness of the female produced components in a 3×3 m^2 rearing room in which a colony of mealybugs, in several open plastic containers, was placed on the floor in the center. Traps consisting of white cards (18×10 cm^2) covered with 80% polyisobutene adhesive (Rimifoot, Rimi, Petah Tikva, Israel) were baited with 0.5 ml 5×8 mm ID×OD polyethylene vials (Just Plastic, Norfolk, UK) containing either 20 μg of γ-necrodol (I), γ-necrodyl isobutyrate (II), their mixture (I+II, 20 μg each), each in 200 μl n-hexane solution, or only 200 μl n-hexane control. The baited traps were hung at 1.2 m height, separated by 2.8 m and were rotated in position every day for 12 days. The Kruskal-Wallis rank sum test and post-hoc Conover tests above were used to compare catches on treatments for statistical differences.

N. viridis males [2] = experiment: Petri dish choice bioassay (arrestment of males on impregnated paper disks); assay type: in vivo, Nipaecoccus viridis; details: for mean number of males attracted to bait (arrested on paper disk): 10 ng on filter paper disk, 24 males released, counted after 1 h, mean ±SE, n=6
Description: Insects. N. viridis populations were collected from two citrus groves in Israel, in West Negev and the […] areas. These populations were used to establish a colony on sprouted potatoes (Solanum tuberosum) in a rearing room at 25±1° C., 50-60% relative humidity, and under a photoperiod of […]:10D. First stage larval instars were separated to a different cage and emerged adult males were removed manually each day (Levi-Zada et al. 2014). Adult females, 10 days after the last molt, were transferred to clean potato sprouts for further use in experiments. Behavioral Bioassays. The two putative female sex pheromone components and their 1:1 mixture were tested in 14-cm diameter glass Petri dish arenas (Mendel et al. 2012). Four filter paper disks (5-mm diameter, Whatman No. 1) impregnated with 1 μl n-hexane solutions containing 10 ng γ-necrodol (I), 10 ng γ-necrodyl isobutyrate (II), 5 ng of each I+II combined, and solvent only (control) were equally spaced in random order on the periphery of the arena in each test (n=6). Twenty-four males were released in each of the tests at the center of a Petri dish and after 1 h the number of males found on each paper disk was recorded. […] If a significant difference was found then post-hoc pairwise Conover tests with Bonferroni correction for multiple comparisons was performed (same PMCMR package).

Molecule | average males caught on sticky trap (N. viridis males [1]) [males per day] | statistical comparison of male catches per day with control (N. viridis males [1]) | mean number of males attracted to bait (arrested on paper disk) (N. viridis males [2]) [males] | statistical comparison of male arrestment with control (N. viridis males [2]; Kruskal-Wallis, post-hoc Conover tests with Bonferroni correction, all P<0.0001)
CC1=C(C)C(C)(C)C(CO)C1 (stereo not shown) [compound I, 2,2,3,4-tetramethyl-3-cyclopentene-1-methanol] | 139±41 | not significantly different | 0.5±0.2 | –
γ-necrodyl isobutyrate [compound II] | 654±178 | significantly more | 3.16±0.7 | significantly different from I or control
